Structures can show the parent of a compound that is named as a salt.

One assay deals with alveolar macrophages. As to conditions: in vitro; cited from earlier work.
Assay [1] has as its system mouse macrophages (bone marrow derived, ABCA1 fl/fl WT) treated with 5% CSE. In words: Mouse macrophages treated with 5% CSE with or without LXR agonist (RT-PCR, Western blot, zymography). Conditions: bone marrow derived macrophages, 5% CSE, LXR agonist 10 μM. The class given is cell-based. On the procedure:
To prepare cigarette (CSE), the smoke from one cigarette (1.1 mg of nicotine, 15 mg of tar) was passed through 25 mls of phosphate buffered saline (PBS) (Mercer et al., 2004). The pH of the extracted solution was adjusted to 7.4 and then filtered (Mercer et al., 2004). CSE was added to the media at concentrations up to 5% (vol/vol) (Mercer et al., 2004).
In these experiments both mouse peritoneal and mouse bone marrow derived macrophages (BMdM) were utilized. Mouse peritoneal macrophages were isolated from peritoneal cavities of 3% thioglycolate injected mice on the 5th day from injection. To compare expression of genes in vitro and in vivo peritoneal macrophages were isolated from mice exposed to room air and cigarette smoke. For in vitro analysis cells were seeded on culture plates for 24 h and then treated with CSE. For in vivo analysis cells were collected from peritoneal cavity and mRNA was directly isolated. Mouse BMdMs were obtained from the following mice: ABCA1 fl/fl in a C57/BL6 background. Briefly, mice were first sacrificed by CO2 asphyxiation followed by cervical dislocation. After sacrificing the mouse the legs were amputated and the excess muscle tissue was removed so as to completely expose the femur and tibia, which were cleaned carefully. These samples were left in sterile PBS for the duration of the procedure. The cavity bones were then flushed with 10 ml of PBS using 26G needle. The obtained cells were then counted (usually 100-150 million cells per mouse) and centrifuged for 5 min at 2600 rpm. Hematopoietic cells can be separated by plastic adhesion; therefore the cells were incubated in petri dishes containing DMEM culture media and supplemented with 10% FBS and 1% antibiotics). Non-adherent progenitor cells were then collected after 2 hours of incubation in culture media and then seeded at a concentration of 4 million cells/ml in fresh culture media, supplemented with L-cell conditioned media containing macrophage colony stimulating factor (M-CSF) at a concentration of 20%. Approximately after 7-10 days of plating the cells become fully differentiated into macrophages and were ready for subsequent experiments. After treatment the culture supernatants, proteins, and total RNA were collected for analysis. […]
Total RNA was extracted from specimens of lung tissue 0.3 cm^3 in size with the use of the RNeasy kit (Qiagen, Germantown, Md.) (Goldklang et al., 2012). The RNA was then further processed to obtain cDNA, which was used for Real Time (RT) PCR analysis. TaqMan gene expression assays (Applied Biosystems, Carlsbad, Calif.) were performed to assess gene-transcript levels with the use of an ABI Prism 7900HT Sequence Detection System (Applera, Foster City, Calif.) (Goldklang et al., 2012). The following primers were used to check the respective gene expression: ABCA1 (Hs01059118_m1), ABCG1 (Hs00245154_m1), MMP-9 (Mm00442991_m1), IL-1β (Mm00434227_g1), TNF-α (Mm00443260_g1) and GAPDH (4352932E) from TaqMan Gene Expression Assays, Applied Biosystems, CA. β-actin was used as a control since it is a housekeeping gene.
The lungs of mice (-10 mg) were homogenized in 1 ml of Radioimmunoprecipitation assay (RIPA) buffer, and centrifuged at 14,000 g for 10 min. The protein concentration of each sample was measured using a Bradford reagent. The required amount of each sample was then used for western blot analysis, so that the concentration was equal for all samples. Proteins were first separated on the basis of molecular weight via sodium dodecyl sulphate polyacrylamide gel electrophoresis (SDS-PAGE). The same gel was then transferred onto a nitro cellulose membrane with the help of electric current (or electroblotting) that transfers the protein from polyacrylamide gel to the membrane. This membrane was then incubated in the solution containing primary antibodies, specific for the proteins of interest, ABCA1 and ABCG1, followed by the use of a secondary antibody that allowed the detection of protein by chemiluminescent. […]
A general note: Immunoblotting shows a protein as a band on a membrane.

Assay [2] has as its system murine disease models of atherosclerosis. Conditions: mouse, in vivo; cited from earlier work.

Consider `O=C(O)Cc1cccc(OCCCN(Cc2cccc(C(F)(F)F)c2Cl)CC(c2ccccc2)c2ccccc2)c1` [GW3965, 3-[3-[N-(2-Chloro-3-trifluoromethylbenzyl)-(2,2-diphenylethyl)amino]propyloxy]phenylacetic acid hydrochloride], for which, in the assay on alveolar macrophages, the “CXC10, CCL5, and IL-10 production” value was “anti-inflammatory effects”; the “production of TNFα, IL-1β, or CXCL8” value is listed as “did not significantly suppress”. In addition, the “MMP9 expression (mRNA) after smoke exposure” value in assay [1] was “able to block”. In addition, in assay [2], the “cholesterol level in serum and liver” value was “lowers”; the development of atherosclerosis entry is listed as “inhibits”.
With `CON(C)C(=O)CC[C@@H](C)[C@H]1CC[C@H]2[C@@H]3C[C@H](O)[C@@H]4C[C@H](O)CC[C@]4(C)[C@H]3CC[C@]12C` [hypocholamide], in assay [2], the “cholesterol level in serum and liver” value was “lowers”; the development of atherosclerosis entry is given as “inhibits”.

Source of the values: patent publication US20160310454A1, “LIVER X RECEPTOR AGONISTS IN THE TREATMENT OF EMPHYSEMA” (priority 2013, published 2016).
